A word on the IC50: it is the concentration that gives 50% inhibition.

From patent US6365572B1, “Low molecular weight peptide derivatives as inhibitors of the laminin/nidogen interaction” (Aventis Pharma Deutschland GmbH, priority 1999, dated 2002) come the findings set out here.

Starred links: 1 amine or outer side, 2 acyl side, 3 side chain; linkers in the order of their positions; H or OH if unused. Non-standard residues stand in square brackets, D forms with d. Residues, ends and D or L forms follow the SMILES beside them. *: point of attachment. X2 = O=C([C@@H]1[C@H](c2ccccc2)CCN1[*:1])[*:2]; Pro(3R-Ph) = O=C(O)[C@H]1NCC[C@@H]1c1ccccc1; Bip = N[C@@H](Cc1ccc(-c2ccccc2)cc1)C(=O)O; Dip = N[C@H](C(=O)O)C(c1ccccc1)c1ccccc1; 2Nal = N[C@@H](Cc1ccc2ccccc2c1)C(=O)O; d2Nal = N[C@H](Cc1ccc2ccccc2c1)C(=O)O; βAsp = O=C(O)[C@H](CC(=O)[*:2])N[*:1]; Glutaryl = O=C(CCCC(=O)[*:2])[*:1]; hPhe = N[C@@H](CCc1ccccc1)C(=O)O; 3Pal = N[C@@H](Cc1cccnc1)C(=O)O; Cit = NC(=O)NCCC[C@H](N)C(=O)O; NH(3-hydroxypropyl) = OCCCN*; X1 = CC(=O)c1ccccc1C(=O)*

This experiment deals with T1, laminin/nidogen interaction (laminin P1, recombinantly produced human nidogen) (Homo sapiens, UniProt P14543).
T1 construct: made in house; host or cells: HEK-293
T1 sequence (P14543 29-1247): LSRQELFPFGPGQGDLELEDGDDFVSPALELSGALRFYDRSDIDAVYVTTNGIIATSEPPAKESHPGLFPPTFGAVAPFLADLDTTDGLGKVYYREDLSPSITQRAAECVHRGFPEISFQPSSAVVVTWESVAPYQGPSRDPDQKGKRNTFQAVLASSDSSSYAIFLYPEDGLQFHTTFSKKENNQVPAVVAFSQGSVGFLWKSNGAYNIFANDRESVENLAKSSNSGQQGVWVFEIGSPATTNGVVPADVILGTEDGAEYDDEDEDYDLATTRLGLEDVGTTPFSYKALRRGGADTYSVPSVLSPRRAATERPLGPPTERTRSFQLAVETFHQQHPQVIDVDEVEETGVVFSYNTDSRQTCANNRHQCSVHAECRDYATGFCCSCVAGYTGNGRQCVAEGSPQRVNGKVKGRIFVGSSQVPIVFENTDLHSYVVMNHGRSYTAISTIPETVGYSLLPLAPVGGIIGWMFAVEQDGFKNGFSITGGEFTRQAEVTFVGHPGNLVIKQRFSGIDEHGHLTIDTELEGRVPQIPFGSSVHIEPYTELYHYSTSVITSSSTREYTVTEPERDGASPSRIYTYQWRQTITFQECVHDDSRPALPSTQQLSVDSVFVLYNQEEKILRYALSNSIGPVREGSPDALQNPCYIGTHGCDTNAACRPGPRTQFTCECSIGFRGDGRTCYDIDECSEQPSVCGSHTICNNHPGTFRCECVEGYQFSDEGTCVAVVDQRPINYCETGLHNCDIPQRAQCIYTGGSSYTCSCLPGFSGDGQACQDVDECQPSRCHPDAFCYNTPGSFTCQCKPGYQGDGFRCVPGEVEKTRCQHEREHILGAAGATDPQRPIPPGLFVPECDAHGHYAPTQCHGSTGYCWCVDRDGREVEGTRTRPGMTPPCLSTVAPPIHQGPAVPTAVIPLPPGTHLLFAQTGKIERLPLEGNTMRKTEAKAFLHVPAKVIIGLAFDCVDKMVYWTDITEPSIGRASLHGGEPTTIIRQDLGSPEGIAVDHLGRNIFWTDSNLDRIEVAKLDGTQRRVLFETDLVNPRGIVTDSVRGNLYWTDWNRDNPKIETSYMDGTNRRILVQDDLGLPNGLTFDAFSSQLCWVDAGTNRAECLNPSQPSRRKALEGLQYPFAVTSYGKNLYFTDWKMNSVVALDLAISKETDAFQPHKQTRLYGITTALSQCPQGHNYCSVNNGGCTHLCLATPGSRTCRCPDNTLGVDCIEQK
Kind of experiment: HTS screening assay (time-resolved fluorescence), inhibition of laminin/nidogen binding. To be noted: results table 1.3, synthesized compounds 1 to 43; read-out: IC50. The procedure:
5) The compound stocks were preincubated with nidogen (10 μl compound stock to 90 μl nidogen solution) and the assay was performed as described in the attached protocol, yielding a final screening concentration of 2.7 μM per compound. The isolation of laminin P1 from human placenta, human nidogen from transfected HEK-293 cells and mouse laminin γ1III 3-5 from HEK-293 cells is described in WO 98/31709. 3.1.1. HTS screening assay (highly sensitive assay variant): Time-Resolved Fluorescence Assay Coating of test tubes Microtiter plates (for example FluoroNunc®) were coated with 75 μl of a 0.1 μg/ml solution of laminin P1 (in 0.159 g of Na2CO3, 0.293 g of NaHCO3, 0.02 g of NaN3/liter, pH 9.2) at room temperature for 1 hour. The solution was then tipped off, and free binding sites were blocked by incubation with 0.5% BSA (in 7.9 g of NaCl, 1.2 g of Na2HPO4, 0.31 g of KCl, 0.23 g of NaH2PO4, 0.04% Tween 20/liter, pH 7.2) at room temperature for 0.5 hour. Completion of the blocking reaction was followed by decantation of the solution and washing once with 250 μl of washing buffer (PBS/0.04% Tween). Sequential inhibition In parallel with the coating, a preincubation of 85-100 μl of a 0.25 nM nidogen solution (recombinantly produced human nidogen) with inhibitor or standard was carried out in a separate reaction vessel (1 hour at room temperature in 7.9 g of NaCl, 1.2 g of Na2HPO4, 0.31 g of KCl, 0.23 g of NaH2PO4, 0.04% Tween 20/liter, 0.5% BSA, pH 7.2). 75 μl of the preincubation (nidogen+inhibitor or standard) were transferred into the coated wells of the microtiter plate and incubated at room temperature for 1 hour. This was followed by washing twice with PBS/0.04% Tween. Detection of the bound nidogen took place by incubation (at room temperature) for 1 hour with 75 μl of a specific antibody preparation obtained from yolks of eggs from a chicken immunized with human nidogen. The IgY fraction was used in a dilution of 1:500 in PBS/0.04% Tween. The complex of nidogen and specifically bound antibodies was, after washing twice with PBS/0.04% Tween, detected by adding anti-chicken IgY-biotin (75 μl of a 1:2500 dilution; Promega, Madison, Wis. 53711, 608-274-4330). An incubation time of 1 hour and washing twice with PBS/0.04% Tween were followed for this purpose by incubation with streptavidin-europium (Wallac; 1 hour at room temperature) and washing twice with PBS/0.04% Tween. It was finally possible, after adding 100 μl of enhancement solution (Wallac) and shaking for 5 minutes, to measure a fluorescence signal in a Victor multilabel counter using the europium protocol. The relation between the amount, of bound nidogen in the solutions with inhibitor and that of nidogen without added inhibitor was found.
In the case of `CC(C)[C@H](NC(=O)[C@H](C)NC(=O)[C@H](CC(N)=O)NC(=O)[C@H](Cc1ccc(-c2ccccc2)cc1)NC(=O)[C@@H](N)CC(=O)O)C(=O)NCC(=O)NCCCO` [Compound 14, L-Aspartyl-L-3-(4-biphenyl)alanyl-L-asparaginyl-L-alanyl-L-valyl-glycine-3-hydroxypropylamide] (H-D[Bip]NAVG-{NH(3-hydroxypropyl)}), the IC50 was determined as 940 nM. Consider `CC(C)[C@H](NC(=O)[C@H](C)NC(=O)[C@H](CC(N)=O)NC(=O)[C@@H](NC(=O)[C@@H](N)CC(=O)O)C(c1ccccc1)c1ccccc1)C(=O)NCC(=O)NCCCO` [Compound 15, L-Aspartyl-L-(3,3-diphenyl)alanyl-L-asparaginyl-L-alanyl-L-valyl-glycine-3-hydroxypropylamide] (H-D[Dip]NAVG-{NH(3-hydroxypropyl)}), for which the IC50 came to 26300 nM. For `CC(C)[C@H](NC(=O)[C@H](CO)NC(=O)[C@H](CC(N)=O)NC(=O)[C@@H]1[C@H](c2ccccc2)CCN1C(=O)[C@@H](N)CC(=O)O)C(=O)NCC(=O)NCCCO` [Compound 16, L-Aspartyl-L-(3S)-phenylprolyl-L-asparaginyl-L-seryl-L-valyl-glycine-3-hydroxypropylamide] (H-D[X2]NSVG-{NH(3-hydroxypropyl)}) the value was 4280 nM; for `CC(C)[C@H](NC(=O)[C@H](CO)NC(=O)[C@H](CC(N)=O)NC(=O)[C@@H]1[C@@H](c2ccccc2)CCN1C(=O)[C@@H](N)CC(=O)O)C(=O)NCC(=O)NCCCO` [Compound 17, L-Aspartyl-L-(3R)-phenylprolyl-L-asparaginyl-L-seryl-L-valyl-glycine-3-hydroxypropylamide] (H-D[Pro(3R-Ph)]NSVG-{NH(3-hydroxypropyl)}), 2270 nM. With `CC(C)[C@H](NC(=O)[C@H](CO)NC(=O)[C@H](CC(N)=O)NC(=O)[C@H](Cc1cccnc1)NC(=O)[C@@H](N)CC(=O)O)C(=O)NCC(=O)NCCCO` [Compound 18, L-Aspartyl-L-3-(3-pyridyl)alanyl-L-asparaginyl-L-seryl-L-valyl-glycine-3-hydroxypropylamide] (H-D[3Pal]NSVG-{NH(3-hydroxypropyl)}), the IC50 came out at 25000 nM. `CC(C)[C@H](NC(=O)[C@H](CO)NC(=O)[C@H](CC(N)=O)NC(=O)[C@@H](Cc1ccc2ccccc2c1)NC(=O)[C@@H](N)CC(=O)O)C(=O)NCC(=O)NCCCO` [Compound 19, L-Aspartyl-D-3-(2-naphthyl)alanyl-L-asparaginyl-L-seryl-L-valyl-glycine-3-hydroxypropylamide] (H-D[d2Nal]NSVG-{NH(3-hydroxypropyl)}): the half-inhibitory concentration (IC50) stood at 25000 nM. For `CC(C)[C@H](NC(=O)[C@H](CO)NC(=O)[C@H](CC(N)=O)NC(=O)[C@H](CCc1ccccc1)NC(=O)[C@@H](N)CC(=O)O)C(=O)NCC(=O)NCCCO` [Compound 20, L-Aspartyl-L-homophenylalanyl-L-asparaginyl-L-seryl-L-valyl-glycine-3-hydroxypropylamide] (H-D[hPhe]NSVG-{NH(3-hydroxypropyl)}) the value was 32500 nM; for `CC(C)[C@H](NC(=O)[C@H](CO)NC(=O)[C@H](CC(N)=O)NC(=O)[C@H](Cc1ccc2ccccc2c1)NC(=O)[C@@H](N)CC(=O)O)C(=O)NCC(N)=O` [Compound 21, L-Aspartyl-L-3-(2-naphthyl)alanyl-L-asparaginyl-L-seryl-L-valyl-glycine-amide] (H-D[2Nal]NSVG-NH2), 340 nM. With `CC(C)[C@H](NC(=O)[C@H](CO)NC(=O)[C@H](CC(N)=O)NC(=O)[C@H](Cc1ccc2ccccc2c1)NC(=O)[C@@H](N)CC(=O)O)C(N)=O` [Compound 22, L-Aspartyl-L-3-(2-naphthyl)alanyl-L-asparaginyl-L-seryl-L-valine-amide] (H-D[2Nal]NSV-NH2), the IC50 was determined as 180 nM. On to `CC(=O)c1ccccc1C(=O)N[C@@H](Cc1ccc2ccccc2c1)C(=O)N[C@@H](CC(N)=O)C(=O)N[C@@H](CO)C(=O)N[C@H](C(=O)NCC(=O)NCCCO)C(C)C` [Compound 23] (X1-[2Nal]NSVG-{NH(3-hydroxypropyl)}), for which the IC50 stood at 1490 nM. Consider `CC(C)[C@H](NC(=O)[C@H](CO)NC(=O)[C@H](CC(N)=O)NC(=O)[C@H](Cc1ccc2ccccc2c1)NC(=O)C[C@H](N)C(=O)O)C(=O)NCC(=O)NCCCO` [Compound 25, L-β-Aspartyl-L-3-(2-naphthyl)alanyl-L-asparaginyl-L-seryl-L-valyl-glycine-3-hydroxypropylamide] (βAsp-[2Nal]NSVG-{NH(3-hydroxypropyl)}), for which the IC50 worked out at 230 nM. To `CC(C)[C@H](NC(=O)[C@H](CO)NC(=O)[C@H](CC(N)=O)NC(=O)[C@H](Cc1ccc2ccccc2c1)NC(=O)CCCC(=O)O)C(=O)NCC(=O)NCCCO` [Compound 26, Glutaryl-L-3-(2-naphthyl)alanyl-L-asparaginyl-L-seryl-L-valyl-glycine-3-hydroxypropylamide] (Glutaryl-[2Nal]NSVG-{NH(3-hydroxypropyl)}) belongs 450 nM; to `CC(C)[C@H](NC(=O)[C@H](CO)NC(=O)[C@H](CC(N)=O)NC(=O)[C@H](Cc1ccc2ccccc2c1)NC(=O)[C@H](CC(=O)O)NC(=O)[C@@H](N)CCCNC(N)=O)C(=O)NCC(=O)NCCCO` [Compound 27, L-Citrulyl-L-aspartyl-L-3-(2-naphthyl)alanyl-L-asparaginyl-L-seryl-L-valyl-glycine-3-hydroxypropylamide] (H-[Cit]D[2Nal]NSVG-{NH(3-hydroxypropyl)}), 440 nM. `CC(C)[C@H](NC(=O)[C@H](CO)NC(=O)[C@H](CC(N)=O)NC(=O)[C@H](Cc1ccc2ccccc2c1)NC(=O)[C@H](CC(=O)O)NC(=O)[C@@H](N)CCCNC(=N)N)C(=O)NCC(=O)NCCCO` [Compound 28, L-Arginyl-L-aspartyl-L-3-(2-naphthyl)alanyl-L-asparaginyl-L-seryl-L-valyl-glycine-3-hydroxypropylamide] (H-RD[2Nal]NSVG-{NH(3-hydroxypropyl)}): the IC50 worked out at 150 nM. For `CC(C)[C@H](NC(=O)[C@H](CO)NC(=O)[C@H](CC(N)=O)NC(=O)[C@H](Cc1ccc2ccccc2c1)NC(=O)[C@H](CC(=O)O)NC(=O)[C@@H](N)CCCCN)C(=O)NCC(=O)NCCCO` [Compound 29, L-Lysyl-L-aspartyl-L-3-(2-naphthyl)alanyl-L-asparaginyl-L-seryl-L-valyl-glycine-3-hydroxypropylamide] (H-KD[2Nal]NSVG-{NH(3-hydroxypropyl)}) the value was 240 nM.
